Results as given in ChEMBL document CHEMBL5325393, “A mini-review on synthesis and antiviral activity of natural product oxetanocin A derivatives” (Bioorg Med Chem, 2022).
pEC50, pIC50: −log10 of the molar value. Converted amounts (≈) assume the structure as drawn.

Columns and labels:
HUVEC [1] = assay: Angiogenic activity against HUVEC cells assessed as relative area of tube formation at 100 uM incubated for 96 hrs by Alexa fluor 488 staining based analysis; type: functional, Homo sapiens
Human alphaherpesvirus 2 [2] = assay: Antiviral activity against HSV-2 assessed as inhibition of viral growth; type: functional, organism-based
[3] = test system: Human immunodeficiency virus 1; assay: Antiviral activity against HIV-1 assessed as inhibition of viral replication; type: functional, organism-based
Human alphaherpesvirus 1 [4] = assay: Antiviral activity against HSV-1 assessed as inhibition of viral growth; type: functional, organism-based
HUVEC [5] = assay: Angiogenic activity against HUVEC cells assessed as relative area of tube formation at 100 uM incubated for 10 days by tube formation assay; type: functional, Homo sapiens; conditions: time 10 day
MT4 = assay: Cytotoxicity against human MT4 cells assessed as inhibition of cell growth; type: functional
Human betaherpesvirus 5 [6] = assay: Antiviral activity against HCMV AD169 infected in HELF cells by plaque reduction assay; type: functional, organism-based; conditions: Human betaherpesvirus 5, AD169, HELF
[7] = test system: Human immunodeficiency virus 1; assay: Antiviral activity against HIV-1 HTLV-IIIB infected in human MT4 cells assessed as inhibition of viral replication incubated for 4 days by immunofluorescence assay; type: functional, organism-based; conditions: Human immunodeficiency virus 1, HTLV-IIIB, MT4, 96 h
Human alphaherpesvirus 2 [8] = assay: Antiviral activity against thymidine kinase deficient HSV-2 assessed as inhibition of viral replication by plaque reduction assay; type: functional, organism-based
[9] = test system: Human immunodeficiency virus 1; assay: Antiviral activity against HIV-1 HTLV-IIIB infected in human MT4 cells assessed as inhibition of viral replication; type: functional, organism-based; conditions: Human immunodeficiency virus 1, HTLV-IIIB
Murid betaherpesvirus 1 = assay: Antiviral activity against MCMV Smith infected in MEF cells assessed as reduction in plaque formation by plaque reduction assay; type: functional; conditions: Murid betaherpesvirus 1, Smith, read-out: ED50 (the source's name)
Hepatitis B virus [10] = assay: Antiviral activity against HBV assessed as inhibition of viral growth; type: functional, organism-based
[11] = test system: Human immunodeficiency virus; assay: Antiviral activity against HIV assessed as inhibition of viral growth; type: functional, organism-based; conditions: Human immunodeficiency virus 1
Human betaherpesvirus 5 [12] = assay: Antiviral activity against HCMV assessed as inhibition of viral growth; type: functional, organism-based
[13] = test system: Human immunodeficiency virus; assay: Antiviral activity against HIV infected in human MT4 cells by plaque reduction assay; type: functional, organism-based; conditions: Human immunodeficiency virus 1, MT4
[14] = test system: Human immunodeficiency virus; assay: Antiviral activity against HIV RF assessed as inhibition of viral growth; type: functional, organism-based; conditions: Human immunodeficiency virus 1, RF
[15] = Cytotoxicity against African green monkey Vero cells assessed as inhibition of cell growth at 132.6 microg/ml relative to control; type: toxicity, cell-based; conditions: chlorocebus sabaeus, at 132.6 µg/mL
Human alphaherpesvirus 2 [16] = assay: Antiviral activity against HSV-2 assessed as inhibition of cytopathic effect at 5.8 ug per well relative to control; type: functional
Human alphaherpesvirus 2 [17] = assay: Antiviral activity against HSV-2 186 infected in African green monkey Vero cells assessed as reduction in virus induced cytopathogenicity by plaque reduction assay; type: functional, organism-based; conditions: Human alphaherpesvirus 2, 186, Vero
Human alphaherpesvirus 1 [18] = assay: Antiviral activity against thymidine kinase positive HSV-1 E-377 infected in HFF cells assessed as reduction in viral replication incubated for 3 days by crystal violet staining based microplate reader analysis; type: functional, organism-based; conditions: Human alphaherpesvirus 1, E-377, HFF, 72 h
Human alphaherpesvirus 1 [19] = assay: Antiviral activity against thymidine kinase positive HSV-1 123 infected in HFF cells assessed as reduction in viral replication incubated for 3 days by crystal violet staining based microplate reader analysis; type: functional, organism-based; conditions: Human alphaherpesvirus 1, 123, HFF, 72 h
Human alphaherpesvirus 1 [20] = assay: (§1) Antiviral activity against lethal systemic HSV-1 123 infected in po dosed Swiss mouse model assessed as increase in animal survival administered as single double strength loading dose at 7 hrs post-inoculation and single strength dose at 23, 31, 47, 55, 71, 79 hrs post-inoculation and monitored for 21 days; type: functional; conditions: time 21 day
Human alphaherpesvirus 1 [21] = assay: Antiviral activity against thymidine kinase positive HSV-1 SC-16 infected in HFF cells assessed as reduction in viral replication incubated for 3 days by crystal violet staining based microplate reader analysis; type: functional, organism-based; conditions: Human alphaherpesvirus 1, SC-16, HFF, 72 h
Human alphaherpesvirus 1 [22] = assay: Antiviral activity against HSV-1 KOS infected in African green monkey Vero cells assessed as reduction in virus induced cytopathogenicity by plaque reduction assay; type: functional, organism-based; conditions: Human alphaherpesvirus 1, KOS
Human alphaherpesvirus 1 [23] = assay: as §1, with “intracerebral” for “systemic”; type: functional; conditions: time 21 day
Cytomegalovirus = assay: Antiviral activity against CMV AD-169 infected in HEL cells assessed as reduction in virus plaque formation; type: functional, organism-based; conditions: Human betaherpesvirus 5, AD-169, HEL
[24] = Cytotoxicity against human CCD-18Co cells assessed as inhibition of cell growth by colorimetric method; type: toxicity, cell-based
Hepatitis B virus [25] = assay: Antiviral activity against HBV infected in human HB611 cells assessed as inhibition of viral DNA replication incubated for 15 days by SDS-PAGE based autoradiographic analysis; type: functional, organism-based; conditions: HB611, 360 h
[26] = Cytotoxicity against human Detroit 551 cells assessed as inhibition of cell growth by colorimetric method; type: toxicity, cell-based
[27] = Cytotoxicity against human HB611 cells assessed as inhibition of cell growth incubated for 48 hrs by colorimetric method; type: functional
[28] = test system: Human immunodeficiency virus 1; assay: Antiviral activity against HIV-1 III B infected in PBMC assessed as inhibition of viral replication at 100 microM relative to control; type: functional; conditions: Human immunodeficiency virus 1, III B
[29] = test system: Human immunodeficiency virus 2; assay: Antiviral activity against HIV-2 D194 infected in PBMC assessed as inhibition of viral replication at 45 microM relative to control; type: functional; conditions: Human immunodeficiency virus 2, D194, PBMC

Nc1nc(Br)nc2c1ncn2[C@@H]1C[C@H](CO)[C@H]1CO showed a Ratio (HUVEC [1]) of 2.1.
For Nc1nc2c(ncn2N2C[C@H](CO)[C@H]2CO)c(=O)[nH]1, the EC50 (Human alphaherpesvirus 2 [2]) was 6.32 µg/mL (≈ 23.7 µM), the EC50 [3] was 0.46 µg/mL (≈ 1.73 µM) and the EC50 (Human alphaherpesvirus 1 [4]) was 5.36 µg/mL (≈ 20.1 µM).
Work on COc1nc(N)c2ncn([C@@H]3C[C@H](CO)[C@H]3CO)c2n1 yielded a Ratio (HUVEC [5]) of 1.87.
O=c1[nH]cnc2c1ncn2[C@@H]1O[C@H](CO)[C@H]1CO showed a CC50 (MT4) of 330 µM, a pIC50 (Human betaherpesvirus 5 [6]) of 4.74 and a pEC50 [7] of 5.66.
Compound Nc1nc(F)nc2c1ncn2[C@@H]1O[C@H](CO)[C@H]1CO has a pIC50 (Human alphaherpesvirus 2 [8]) of 5.41 and a pIC50 [9] of 7.80.
With Nc1nc(Cl)nc2c1ncn2C1CC2(C1)CC(CO)(CO)C2 the Ratio (HUVEC [5]) was 3.59.
Work on Nc1ncnc2c1ncn2[C@@H]1C[C@H](CO)[C@H]1CO yielded a pIC50 (Human alphaherpesvirus 2 [2]) of 5.80, an EC50 (Murid betaherpesvirus 1) of 0.05 µg/mL (≈ 0.201 µM) and a pIC50 (Hepatitis B virus [10]) of 7.62. The pIC50 [11] was 7.52, the pIC50 (Human alphaherpesvirus 1 [4]) was 5.80 and the pIC50 (Human betaherpesvirus 5 [12]) was 4.92.
In the case of Nc1ncnc2c1ncn2[C@H]1C[C@@H](CO)C1, the pEC50 [11] was 6.10.
Work on Nc1nc2c(ncn2[C@H]2C[C@@H](CO)C2)c(=O)[nH]1 yielded a pEC50 [11] of 5.10.
Work on Nc1ncnc2c1ncn2[C@@H]1O[C@H](CO)[C@H]1CO yielded an IC50 [13] of 4.3 µg/mL (≈ 17.1 µM), an IC50 [14] of 0.5 µg/mL (≈ 1.99 µM) and an EC50 [3] of 1.4 µg/mL (≈ 5.57 µM). The inhibition at 132.6 microg/ml [15] was 50%, the pIC50 (Human betaherpesvirus 5 [6]) was 4.89 and the pIC50 [9] was 5.77. It also gave an inhibition at 5.8 µg/disc (Human alphaherpesvirus 2 [16]) of 50%, a pEC50 [7] of 5.85 and an IC50 (Human betaherpesvirus 5 [12]) of 13 µg/mL.
For Nc1nc2c(ncn2COCCO)c(=O)[nH]1 [ACYCLOVIR], the EC50 (Human alphaherpesvirus 2 [17]) was 0.18 µg/mL (≈ 0.799 µM), the pEC50 (Human alphaherpesvirus 1 [18]) was 6.70 and the EC50 (Human alphaherpesvirus 2 [2]) was 0.39 µg/mL (≈ 1.73 µM). The pEC50 (Human alphaherpesvirus 1 [19]) was 6.70, the ED50 (Human alphaherpesvirus 1 [20]) was over 500 mg/kg.day and the pEC50 (Human alphaherpesvirus 1 [21]) was 6.70. The EC50 (Human alphaherpesvirus 1 [22]) was 0.41 µg/mL (≈ 1.82 µM), the ED50 (Human alphaherpesvirus 1 [23]) was over 500 mg/kg.day and the pIC50 (Human alphaherpesvirus 2 [8]) was 4.92. The EC50 (Cytomegalovirus) was 40 µg/mL (≈ 178 µM) and the EC50 (Human alphaherpesvirus 1 [4]) was 0.32 µg/mL (≈ 1.42 µM).
Compound Nc1ncnc2c1ncn2[C@@H]1O[C@H](CO)[C@@H]1O has an IC50 [13] of 0.54 µg/mL (≈ 2.28 µM).
For CC(C)Oc1nc(N)c2ncn([C@@H]3C[C@H](CO)[C@H]3CO)c2n1, the Ratio (HUVEC [5]) was 1.9.
Compound Nc1nc2c(ncn2[C@@H]2O[C@H](CO)[C@H]2CO)c(=O)[nH]1 has a pIC50 [24] of under 3.52, a pIC50 (Hepatitis B virus [25]) of 5.82 and a pIC50 [26] of under 3.52. The pIC50 (Human betaherpesvirus 5 [6]) was 6.00, the CC50 [27] was over 1000 µM and the pEC50 [7] was 5.66.
In the case of Cc1cn([C@H]2C[C@H](N=[N+]=[N-])[C@@H](CO)O2)c(=O)[nH]c1=O [ZIDOVUDINE], the EC50 [3] was 0.003 µg/mL (≈ 0.0112 µM).
Compound Nc1nc2c(ncn2[C@H]2C[C@@](F)(CO)C2)c(=O)[nH]1 has an inhibition at 100 µM [28] of 30% and an inhibition at 45 µM [29] of 50%.
Nc1nc(=O)c2ncn([C@@H]3C[C@H](CO)[C@H]3CO)c2[nH]1 [LOBUCAVIR] showed a pIC50 (Human alphaherpesvirus 2 [2]) of 7.10, an EC50 (Murid betaherpesvirus 1) of 0.1 µg/mL (≈ 0.377 µM) and a pIC50 (Hepatitis B virus [10]) of 6.07. It also gave a pIC50 [11] of 6.52, a pIC50 (Human alphaherpesvirus 1 [4]) of 7.33 and a pIC50 (Human betaherpesvirus 5 [12]) of 6.40.
